For 21 compounds, T/C results are on record in PubChem BioAssay AID192 (DTP/NCI, 2004).

Several values for one entry are separate records, joined by “and”; a condition that tells them apart may be missing. Equal values may be shown once. Toxic doses and inconclusive results are not listed.

The assay has as its system BDF1 mice, B16 melanoma ip, median survival T/C. Description: NCI In Vivo Anticancer Drug Screen. Data for tumor model B16 Melanoma (intraperitoneal) in B6D2F1 (BDF1) mice. The settings on record: endpoint: median survival time, higher = longer survival. The method in brief:
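Transplantable tumor model; survival or tumor size measured; reported as T/C, treated over vehicle control.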

[1] abbreviates: dose: 0.25 mg/kg/injection, schedule: Q01DX009 (ip), vehicle: saline.
[2] abbreviates: dose: 0.5 mg/kg/injection, schedule: Q01DX009 (ip), vehicle: saline.
The mark [3] stands for this setting: dose: 3.12 mg/kg/injection, schedule: Q01DX009 (ip), vehicle: saline.
The mark [4] stands for this setting: dose: 12.5 mg/kg/injection, schedule: Q01DX009 (ip), vehicle: saline.
Setting [5] is: dose: 25.0 mg/kg/injection, schedule: Q01DX009 (ip), vehicle: saline.
[6] abbreviates: dose: 50.0 mg/kg/injection, schedule: Q01DX009 (ip), vehicle: saline.
[7] abbreviates: dose: 100.0 mg/kg/injection, schedule: Q01DX009 (ip), vehicle: saline.
Setting [8] is: dose: 6.25 mg/kg/injection, schedule: Q01DX009 (ip), vehicle: saline.
Where [9] appears, read: dose: 12.5 mg/kg/injection, schedule: Q01DX009 (ip), vehicle: saline with Tween-80.
Where [10] appears, read: dose: 100.0 mg/kg/injection, schedule: Q01DX009 (ip), vehicle: saline with Tween-80.
[11] abbreviates: dose: 25.0 mg/kg/injection, schedule: Q01DX009 (ip), vehicle: saline with Tween-80.
Where [12] appears, read: dose: 200.0 mg/kg/injection, schedule: Q01DX009 (ip), vehicle: saline with Tween-80.
[13] abbreviates: dose: 400.0 mg/kg/injection, schedule: Q01DX009 (ip), vehicle: saline with Tween-80.
Where [14] appears, read: dose: 50.0 mg/kg/injection, schedule: Q01DX009 (ip), vehicle: saline with Tween-80.

Regarding `C/C=C(\C)c1cc(=O)c2c(C)cc3c(c2o1)C(=O)c1c(O)c(C2CC(C)(N(C)C)C(OC(C)=O)C(C)O2)cc(C2CC(N(C)C)C(O)C(C)O2)c1C3=O` (stereo unspecified), the T/C is, setting by setting: (dose: 0.16 mg/kg/injection, schedule: Q01DX009 (ip), vehicle: saline) 103 % of control; (dose: 0.31 mg/kg/injection, schedule: Q01DX009 (ip), vehicle: saline) 103 % of control; (dose: 0.62 mg/kg/injection, schedule: Q01DX009 (ip), vehicle: saline) 102 % of control; (dose: 1.25 mg/kg/injection, schedule: Q01DX009 (ip), vehicle: saline) 91 % of control and 110 % of control; (dose: 2.5 mg/kg/injection, schedule: Q01DX009 (ip), vehicle: saline) 124 % of control.
For `CCCCCCCCCCCCCCCC(=O)O[C@@]12C[C@@H](C)[C@@]3(O)[C@@H](C=C(CO)C[C@]4(O)C(=O)C(C)=C[C@@H]34)[C@@H]1C2(C)C`, the T/C runs as follows: (dose: 0.03 mg/kg/injection, schedule: Q01DX009 (ip), vehicle: saline + Tween-80 + alcohol) 103 % of control; (dose: 0.03 mg/kg/injection, schedule: Q01DX009 (ip), vehicle: saline) 94 % of control; (dose: 0.06 mg/kg/injection, schedule: Q01DX009 (ip), vehicle: saline + Tween-80 + alcohol) 109 % of control; (dose: 0.06 mg/kg/injection, schedule: Q01DX009 (ip), vehicle: saline) 99 % of control; (dose: 0.12 mg/kg/injection, schedule: Q01DX009 (ip), vehicle: saline) 96 % of control; (dose: 0.13 mg/kg/injection, schedule: Q01DX009 (ip), vehicle: other) 103 % of control. The T/C (dose: 0.13 mg/kg/injection, schedule: Q01DX009 (ip), vehicle: saline + Tween-80 + alcohol) was 110 % of control; the T/C under setting [1] was 92 % of control; the T/C under setting [2] was 92 % of control.
Regarding `ClCCN(CC#CCCCC#CCN(CCCl)CCCl)CCCl`, the T/C is, setting by setting: (dose: 1.56 mg/kg/injection, schedule: Q01DX009 (ip), vehicle: saline) 111 % of control; under setting [3], 123 % of control; under setting [4], 173 % of control; under setting [5], 156 % of control.
For `COc1cc2ccncc2cc1O`, the T/C is 104 % of control (dose: 6.25 mg/kg/injection, schedule: Q01DX009 (ip), vehicle: water); 95 % of control (dose: 12.5 mg/kg/injection, schedule: Q01DX009 (ip), vehicle: water); 109 % of control (dose: 25.0 mg/kg/injection, schedule: Q01DX009 (ip), vehicle: water); 98 % of control (dose: 50.0 mg/kg/injection, schedule: Q01DX009 (ip), vehicle: water).
As to `Nc1nc2c(c(=O)[nH]1)NC(CCNc1ccc(C(=O)NC(CCC(=O)O)C(=O)O)cc1)CN2` (stereo unspecified), the T/C by setting is: under setting [5], 94 % of control; under setting [6], 102 % of control; under setting [7], 110 % of control.
On to `Nc1nc2c(ncn2C2OC(CO)C(O)C2N)c(=O)[nH]1` (stereo unspecified), for which the T/C runs as follows: under setting [3], 95 % of control and 110 % of control; under setting [8], 101 % of control and 102 % of control and 104 % of control; under setting [4], 106 % of control and 107 % of control and 110 % of control; (dose: 25.0 mg/kg/injection, schedule: Q01DX005 (ip), vehicle: saline with Tween-80) 104 % of control; under setting [5], 89 % of control and 101 % of control and 112 % of control; (dose: 35.0 mg/kg/injection, schedule: Q01DX005 (ip), vehicle: saline with Tween-80) 104 % of control. Also, the T/C runs as follows: under setting [6], 89 % of control and 101 % of control; (dose: 55.0 mg/kg/injection, schedule: Q01DX005 (ip), vehicle: saline with Tween-80) 95 % of control; (dose: 80.0 mg/kg/injection, schedule: Q01DX005 (ip), vehicle: saline with Tween-80) 104 % of control; under setting [7], 96 % of control.
For `Cc1ccc2c(c1)n([O-])c1cc(Cl)ccc1[n+]2=O`, the T/C reads like this: under setting [9], 115 % of control; under setting [10], 122 % of control.
As for `CNCC(O)c1ccc(O)cc1` (stereo unspecified), the T/C reads like this: under setting [5], 110 % of control; under setting [6], 115 % of control and 121 % of control; under setting [7], 110 % of control and 121 % of control; (dose: 150.0 mg/kg/injection, schedule: Q01DX009 (ip), vehicle: saline) 91 % of control; (dose: 200.0 mg/kg/injection, schedule: Q01DX009 (ip), vehicle: saline) 106 % of control and 123 % of control; (dose: 300.0 mg/kg/injection, schedule: Q01DX009 (ip), vehicle: saline) 94 % of control. For the same compound, the T/C by setting is: (dose: 400.0 mg/kg/injection, schedule: Q01DX009 (ip), vehicle: saline) 110 % of control; (dose: 600.0 mg/kg/injection, schedule: Q01DX009 (ip), vehicle: saline) 89 % of control.
As for `O[C@H](CN1CC1)[C@@H](O)CN1CC1`, the T/C reads like this: (dose: 0.13 mg/kg/injection, schedule: Q01DX009 (ip), vehicle: saline) 117 % of control; under setting [1], 151 % of control; under setting [2], 166 % of control.
For the compound `CC12C=CC(C=C1)C(O)C2` (stereo unspecified), the T/C reads like this: (dose: 100.0 mg/kg/injection, schedule: Q04DX003 (ip), vehicle: saline with Tween-80) 112 % of control; (dose: 200.0 mg/kg/injection, schedule: Q04DX003 (ip), vehicle: saline with Tween-80) 93 % of control; (dose: 400.0 mg/kg/injection, schedule: Q04DX003 (ip), vehicle: saline with Tween-80) 101 % of control.
In the case of `CNCC(C)(C)c1ccccc1`, the T/C is, setting by setting: under setting [8], 102 % of control; under setting [4], 90 % of control; under setting [5], 102 % of control; under setting [6], 100 % of control.
As for `Nc1ncnc2c1cnn2C1OC(CO)C(O)C1O` (stereo unspecified), the T/C was 113 % of control under setting [9] and 109 % of control under setting [11].
As to `CC(=O)OC1C(C)OC(OC(=O)C2CCC3C(C2)OC2(CC(OC(=O)/C=C/c4ccccc4)C(C)CO2)C32CO2)C(OC2OC(C)C(O)C(OC(C)=O)C2O)C1O` (stereo unspecified), the T/C was 152 % of control (dose: 6.0 mg/kg/injection, schedule: Q01DX009 (ip), vehicle: saline + alcohol); 186 % of control (dose: 12.0 mg/kg/injection, schedule: Q01DX009 (ip), vehicle: saline + alcohol); 205 % of control (dose: 24.0 mg/kg/injection, schedule: Q01DX009 (ip), vehicle: saline + alcohol); 193 % of control (dose: 48.0 mg/kg/injection, schedule: Q01DX009 (ip), vehicle: saline + alcohol).
Take `CCOC(=O)CC(C)(N)NC(N)=O` (stereo unspecified): the T/C was 92 % of control under setting [10], 95 % of control under setting [12] and 90 % of control under setting [13].
Consider `CCCCN(CCCC)CC(O)c1ccnc2cc3c(cc12)OCO3` (stereo unspecified), for which the T/C by setting is: (dose: 25.0 mg/kg/injection, schedule: Q04DX003 (ip), vehicle: Klucel (hydroxypropylcellulose) (HPC)) 94 % of control; (dose: 50.0 mg/kg/injection, schedule: Q04DX003 (ip), vehicle: Klucel (hydroxypropylcellulose) (HPC)) 89 % of control; (dose: 100.0 mg/kg/injection, schedule: Q04DX003 (ip), vehicle: Klucel (hydroxypropylcellulose) (HPC)) 89 % of control.
As for `C[C@]12CC[C@H]3[C@@H](CC[C@]4(O)C[C@@H](O)CC[C@]34C=O)[C@@]1(O)CC[C@@H]2C1=CC(=O)OC1`, the T/C was 104 % of control under setting [9]; 92 % of control under setting [11]; 97 % of control under setting [14]; 97 % of control under setting [10]; 90 % of control under setting [12].
In the case of `CC(=O)Nc1ccc2c(ccc3ccccc32)c1`, the T/C is, setting by setting: under setting [11], 90 % of control; under setting [14], 102 % of control; under setting [10], 89 % of control.
On to `Cc1cc2cc3cc(C)c(N)cc3nc2cc1N`, for which the T/C reads like this: (dose: 3.12 mg/kg/injection, schedule: Q01DX009 (ip), vehicle: saline with Tween-80) 116 % of control; (dose: 6.25 mg/kg/injection, schedule: Q01DX009 (ip), vehicle: saline with Tween-80) 121 % of control; under setting [11], 119 % of control.
On to `CC(C)N(CCCO)C(C)C`, for which the T/C under setting [14] was 101 % of control and the T/C under setting [10] was 97 % of control.
Regarding `COc1cccc2c1C(=O)c1c(O)c3c(c(O)c1C2=O)C[C@@](O)(C(=O)COC(=O)Cc1ccccc1)C[C@@H]3OC1CC(N)C(O)C(C)O1` (stereo partly specified), the T/C by setting is: (dose: 0.5 mg/kg/injection, schedule: Q01DX009 (ip), vehicle: saline with Tween-80) 151 % of control and 186 % of control; (dose: 1.0 mg/kg/injection, schedule: Q01DX009 (ip), vehicle: saline with Tween-80) 165 % of control and 186 % of control; (dose: 2.0 mg/kg/injection, schedule: Q01DX009 (ip), vehicle: saline with Tween-80) 172 % of control and 232 % of control.
`O=C(O)C1OC1c1ccccc1` (stereo unspecified): the T/C under setting [10] is 97 % of control, the T/C under setting [12] is 102 % of control and the T/C under setting [13] was 100 % of control.
